Measurements from publication PMC6158189, “A pharmacological probe identifies cystathionine β-synthase as a new negative regulator for ferroptosis” (Cell Death & Disease, 2018).

Key:
[1] = test system: HEK293T cells; assay: total Hcys in HEK293T cells (ELISA); format: cell-based; settings: 5 or 10 μM, 12 h
Description: Fig. 3 The effect of CH004 on the activity of endogenous hCBS in cells. a CH004 dose-dependently elevates the levels of Hcys in HepG2 and HEK293T cells. HepG2 cells or HEK293T cells were incubated with indicated CH004 or DMSO (control) for 12 h. The amount of total Hcys in cells was measured by ELISA using Axis® Homocysteine EIA kit (IBL, AX51301) (“Materials and Methods” section). […] HepG2 cells were treated with indicated DMSO, CH004 or HA for 8 h before the staining with AzMC probe. The amount of the H2S (blue) was quantified and is shown in (c). Bars, 50 μm. Control (CTR), DMSO group (100%). A representative fluorescence image from three independent experiments is shown. Means ± SDS (n = 3). d CH004 elevates Hcys in the peripheral blood of rats. The total Hcys of the blood samples collected from the anesthetized rats at the 75 min time point (Materials and Methods) were quantified by ELISA (see above). Means ± SDS (n = 6).
HepG2 or HEK293T cells were seeded in poly-D-Lys-coated 6-well plates at a density of ∼ 5 × 10^5 cells per well for one day, treated with DMSO or various concentrations of compounds for another 12 h before the collection by scraping or trypsinization. […]

[2] = target: T1, hCBS Y223F (Homo sapiens, UniProt P35520, Y223F); assay: purified hCBS mutant enzyme assay; format: biochemical
T1 construct: hCBS-413 (a C-terminal truncated hCBS 1–413); GST (N); made in house; host or cells: E. coli BL21
Description: (§1) The IC50 values of CH004 for hCBS-413, hCBS-413 mutants, hCBS-FL, hCSE or hDDC were determined according to the standard assay conditions otherwise indicated.
(§2) Table S2. Inhibitory effects of CH004 on hCBS WT and mutants.

[3] = target: T2, hCBS T146A (Homo sapiens, UniProt P35520, T146A); assay: purified hCBS mutant enzyme assay; format: biochemical
T2 construct: hCBS-413 (a C-terminal truncated hCBS 1–413); GST (N); made in house; host or cells: E. coli BL21
Description: as §1, §2

[4] = target: T3, hCBS S147A (Homo sapiens, UniProt P35520, S147A); assay: purified hCBS mutant enzyme assay; format: biochemical
T3 construct: hCBS-413 (a C-terminal truncated hCBS 1–413); GST (N); made in house; host or cells: E. coli BL21
Description: as §1, §2

[5] = target: T4, hCBS Q222A (Homo sapiens, UniProt P35520, Q222A); assay: purified hCBS mutant enzyme assay; format: biochemical
T4 construct: hCBS-413 (a C-terminal truncated hCBS 1–413); GST (N); made in house; host or cells: E. coli BL21
T4 sequence (P35520 1-413 Q222A): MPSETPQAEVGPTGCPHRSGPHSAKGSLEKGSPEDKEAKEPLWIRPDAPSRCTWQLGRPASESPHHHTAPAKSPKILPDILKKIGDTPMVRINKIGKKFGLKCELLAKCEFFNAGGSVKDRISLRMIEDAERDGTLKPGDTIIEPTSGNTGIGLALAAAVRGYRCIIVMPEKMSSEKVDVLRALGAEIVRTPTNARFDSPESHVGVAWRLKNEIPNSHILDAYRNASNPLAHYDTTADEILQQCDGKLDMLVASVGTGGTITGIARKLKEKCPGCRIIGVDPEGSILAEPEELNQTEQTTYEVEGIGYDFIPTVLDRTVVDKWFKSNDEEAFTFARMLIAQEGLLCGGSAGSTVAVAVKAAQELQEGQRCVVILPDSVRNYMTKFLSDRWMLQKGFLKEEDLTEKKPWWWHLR
Description: as §1
Figure S6. […] HEK293T cells stably expressing CBS Q222A mutant (293T-CBS Q222A) were treated with 0 (DMSO control), 5 or 10 μM CH004 for 8 h before staining with the AzMC to detect H2S. The overlaid images of fluorescent and bright-field images are shown in the left panel, and the corresponding fluorescent (blue, H2S) and bright-field images are shown in the middle and right panels, respectively. Bars: 50 μm. [picture] Figure S7. The CH004-insensitive CBS Q222A mutant can be inhibited by HA. (A) HEK293T cells stably expressing CBS Q222A mutant (293T-CBS Q222A) were treated with 0 (DMSO, control), 5 or 10 μM of CH004, 1 mM or 2 mM of HA for 8 h before staining with the AzMC to detect H2S. The overlaid images of fluorescent and bright-field images are shown in the upper panel, and the corresponding fluorescent (blue, H2S) and bright-field images are shown in the middle and lower panels, respectively. Bars: 50 μm. (B) Quantification of the mean fluorescent density of H2S (blue). The intensity of blue light of the fluorescent images was quantified by ImageJ software, quantified and deduced the background signal in HEK293T-EV cells (Supplementary Figure S3B), normalized by the corresponding cell area and expressed as percentages of control (DMSO group, 100%). Means ± SDs (n=3). One-way ANOVA with Bonferroni post-tests was used for the analysis. *, p< 0.05; **, p< 0.01; n.s. no significance. The images are one representative from three independent experiments. (C) The inhibitory effect of 1 mM HA on purified CBS Q222A mutant. The assay was performed using 60 mM Cys and 1.2 μM CBS-413 Q222A mutant. The data were expressed as percentages of control (DMSO, 100%). Means ± SDs (n=4). [picture]
as §2

[6] = 150 nM CBS, 4 mM Hcys, 4 mM Cys, Tris-HCl pH 8.6

T1 sequence (P35520 1-413 Y223F): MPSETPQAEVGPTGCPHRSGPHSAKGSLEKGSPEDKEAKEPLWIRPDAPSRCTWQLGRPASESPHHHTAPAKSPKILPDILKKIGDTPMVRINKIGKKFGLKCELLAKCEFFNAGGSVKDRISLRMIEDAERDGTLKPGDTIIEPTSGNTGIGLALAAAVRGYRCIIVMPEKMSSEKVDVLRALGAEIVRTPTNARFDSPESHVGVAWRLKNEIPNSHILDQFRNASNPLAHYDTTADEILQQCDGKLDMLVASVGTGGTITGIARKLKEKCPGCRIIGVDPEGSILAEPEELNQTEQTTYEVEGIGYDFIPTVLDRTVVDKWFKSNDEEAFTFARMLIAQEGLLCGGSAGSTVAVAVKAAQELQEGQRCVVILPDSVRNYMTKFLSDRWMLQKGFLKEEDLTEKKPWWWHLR
T3 sequence (P35520 1-413 S147A): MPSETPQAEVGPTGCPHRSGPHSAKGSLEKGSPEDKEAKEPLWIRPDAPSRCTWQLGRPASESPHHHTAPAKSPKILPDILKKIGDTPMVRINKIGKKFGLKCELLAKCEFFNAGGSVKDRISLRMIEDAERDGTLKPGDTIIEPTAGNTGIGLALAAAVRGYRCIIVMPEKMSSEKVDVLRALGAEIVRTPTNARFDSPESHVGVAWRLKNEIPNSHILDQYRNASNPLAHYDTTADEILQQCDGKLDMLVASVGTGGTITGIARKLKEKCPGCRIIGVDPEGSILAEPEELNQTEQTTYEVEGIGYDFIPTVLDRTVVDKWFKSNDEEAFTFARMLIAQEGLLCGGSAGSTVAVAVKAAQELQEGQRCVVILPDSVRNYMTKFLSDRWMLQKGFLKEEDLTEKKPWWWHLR
T2 sequence (P35520 1-413 T146A): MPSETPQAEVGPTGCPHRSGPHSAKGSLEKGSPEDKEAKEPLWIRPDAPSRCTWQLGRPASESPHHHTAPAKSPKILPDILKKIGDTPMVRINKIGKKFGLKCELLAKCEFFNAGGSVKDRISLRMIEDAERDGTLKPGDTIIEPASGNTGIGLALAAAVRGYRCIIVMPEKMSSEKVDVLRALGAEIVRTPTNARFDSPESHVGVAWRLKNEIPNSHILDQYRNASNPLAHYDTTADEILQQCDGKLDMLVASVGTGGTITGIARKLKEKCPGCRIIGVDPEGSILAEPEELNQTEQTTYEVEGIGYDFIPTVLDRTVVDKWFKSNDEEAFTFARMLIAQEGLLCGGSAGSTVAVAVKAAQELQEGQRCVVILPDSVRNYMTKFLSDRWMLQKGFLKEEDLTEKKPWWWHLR

For `Cn1nc(Cc2ccccc2)nc2c(=O)n(C)c(=O)nc1-2` [CH004, 3-benzyl-1,6-dimethylpyrimido[5,4-e][1,2,4]triazine-5,7(1H,6H)-dione], the “increase of Hcys” value [1] was ~ 2 fold, the “IC50 fold to WT, Y223F” value [2] was 3.5 and the IC50 [2, 6] was 4.2 ± 1 µM. The “IC50 fold to WT, T146A” value [3] was 4.2, the IC50 ([3]; 2 µM CBS, 4 mM Hcys, 4 mM Cys, Tris-HCl pH 8.6) was 5 ± 1.5 µM and the “IC50 fold to WT, S147A” value [4] was 4.9. For the same molecule, the IC50 [4, 6] was 5.9 ± 0.8 µM, the IC50 [5] was 27.6 ± 0.9 µM and the “IC50 fold to WT, Q222A” value [5] was 23.
